Results: patent publication US10752588B2 (The Broad Institute, Inc., priority 2014, dated 2020)
In brackets after ≈: the same amount, converted by molar mass. Read-outs that look alike come from different tables or passages of the source.

Columns and labels:
human D2R/β-arrestin [1] = molecular target: T1, human D2R/β-arrestin (Homo sapiens (Human), UniProt P14416); assay: β-Arrestin agonist assay (PathHunter); format: cell-based; conditions: CHO-K1 cell line expressing human D2R/β-arrestin
Summary of the method: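 Readout follows addition of Buffer:Emerald II:Galactor-Star reagent (19:5:1) to agonist-treated plates, measured as luminescence or fluorescence.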

human D2R/β-arrestin [2] = molecular target: T1, human D2R/β-arrestin; assay: Gi/cAMP agonist assay (Lance Ultra cAMP, Forskolin); format: cell-based; conditions: CHO-K1 cell line expressing human D2R/β-arrestin
Summary of the method: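 Read-out was Lance Ultra competitive TR-FRET (Eu-cAMP tracer plus ULight-anti-cAMP) following forskolin-induced cAMP production. Before forskolin stimulation, compounds were pin-transferred onto the seeded cells for 10 min at 37 °C.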

Solubility in PBS = format: physicochemical
plasma protein [3] = assay: Plasma protein binding, human; format: in vitro ADME; conditions: for fraction unbound: plasma, read-out: Plasma Protein Binding % bound
plasma protein [4] = assay: Plasma protein binding, mouse; format: in vitro ADME; conditions: for fraction unbound: plasma, read-out: Plasma Protein Binding % bound
plasma protein [5] = assay: Plasma protein binding, rat; format: in vitro ADME; conditions: for fraction unbound: plasma, read-out: Plasma Protein Binding % bound
Plasma stability, human = format: in vitro ADME
Plasma stability, rat = format: in vitro ADME
[6] = Microsomal stability, human; format: in vitro ADME
[7] = Microsomal stability, rat; format: in vitro ADME
D2 = D2 (Homo sapiens (Human), UniProt P14416); assay: D2 radioligand binding assay
Chain of D2 (P14416 whole entry): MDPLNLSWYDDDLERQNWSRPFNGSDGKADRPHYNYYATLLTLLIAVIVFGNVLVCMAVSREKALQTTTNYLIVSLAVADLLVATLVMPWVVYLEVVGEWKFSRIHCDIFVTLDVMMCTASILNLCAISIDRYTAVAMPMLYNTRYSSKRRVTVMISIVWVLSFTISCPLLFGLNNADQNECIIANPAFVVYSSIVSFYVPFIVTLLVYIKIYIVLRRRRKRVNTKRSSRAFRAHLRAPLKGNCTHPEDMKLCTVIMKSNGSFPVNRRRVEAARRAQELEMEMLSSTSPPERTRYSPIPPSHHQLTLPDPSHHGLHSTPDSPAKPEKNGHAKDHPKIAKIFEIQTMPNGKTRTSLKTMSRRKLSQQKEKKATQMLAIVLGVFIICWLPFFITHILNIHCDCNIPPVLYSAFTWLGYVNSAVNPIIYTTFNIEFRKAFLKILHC

human D2R/β-arrestin [8] = molecular target: T1, human D2R/β-arrestin; assay: cell-based; conditions: β-arrestin Antagonist, CHO-K1 cell line expressing human D2R/β-arrestin; quinpirole used as agonist
human D2R/β-arrestin [9] = molecular target: T1, human D2R/β-arrestin; assay: cell-based; conditions: cAMP Antagonist, CHO-K1 cell line expressing human D2R/β-arrestin; quinpirole used as agonist
[10] = Microsomal stability, mouse
human D2R/β-arrestin [11] = molecular target: T1, human D2R/β-arrestin; conditions: read-out: β-arrestin Antagonist
human D2R/β-arrestin [12] = molecular target: T1, human D2R/β-arrestin; conditions: read-out: cAMP Antagonist

T1 sequence (P14416 whole entry): as above

solubility (Solubility in PBS; aqueous buffer) [µM]	fraction unbound (plasma protein [3])	fraction unbound (plasma protein [4])	fraction unbound (plasma protein [5])	IC50 (human D2R/β-arrestin [8]) [µM]	IC50 (human D2R/β-arrestin [9]) [µM]	Compound	EC50 (human D2R/β-arrestin [1]) [µM]	EC50 (human D2R/β-arrestin [2]) [µM]	Plasma Stability: % remaining after 5 hours (Plasma stability, human) [%]	Plasma Stability: % remaining after 5 hours (Plasma stability, rat) [%]	Microsomal Stability: % remaining after 60 minutes [6] [%]	Microsomal Stability: % remaining after 60 minutes [7] [%]	Plasma Stability: % remaining after 5 hours (Plasma stability, mouse) [%]	Microsomal Stability: % remaining after 60 minutes [10] [%]	also measured
–	–	–	–	–	–	O=C(NC(c1ccc(Cl)cc1)c1ccccn1)C1CCN(CCOc2ccc3ccc(=O)[nH]c3c2)CC1 (stereo not drawn) [Compound 15]	> 30	> 30	96	91	56	68	100	44	solubility (Solubility in PBS): 4.1 µM (≈ 2.12 µg/mL); Plasma Protein Binding % bound (plasma protein [3]): 97.7%; Plasma Protein Binding % bound (plasma protein [4]): 97.4%; Plasma Protein Binding % bound (plasma protein [5]): 99.0%; IC50 (human D2R/β-arrestin [11]): 10 to 30 µM; IC50 (human D2R/β-arrestin [12]): > 30 µM
225 (≈ 101 µg/mL)	0.023	0.03	0.033	0.1 to 1	0.1 to 1	O=C(NC(c1cccc(Cl)c1)c1ccccn1)C1CCN(CCOc2ccccc2)CC1 (stereo not drawn) [Compound 23]	> 30	> 30	100	96	76	77	100	41	–
–	–	–	–	–	–	O=C(NC(c1ccccn1)c1ccccc1F)C1CCN(CCOc2ccccc2)CC1 (stereo not drawn) [Compound 28]	> 30	0.1 to 1	100	99	87	78	95	52	solubility (Solubility in PBS): 434 µM (≈ 188 µg/mL); Plasma Protein Binding % bound (plasma protein [3]): 75.3%; Plasma Protein Binding % bound (plasma protein [4]): 72.2%; Plasma Protein Binding % bound (plasma protein [5]): 76.7%; IC50 (human D2R/β-arrestin [11]): 1 to 10 µM; IC50 (human D2R/β-arrestin [12]): > 30 µM
27 (≈ 13.1 µg/mL)	0.023	0.026	0.014	1 to 10	> 30	O=C(NC(c1ccc(C(F)(F)F)cc1)c1ccccn1)C1CCN(CCOc2ccccc2)CC1 (stereo not drawn) [Compound 31, 1-(2-phenoxyethyl)-N-(pyridin-2-yl(4-(trifluoromethyl)phenyl)methyl) piperidine-4-carboxamide]	> 30	0.1 to 1	94.2	100	53	55	84.5	57	–
151 (≈ 73 µg/mL)	0.03	0.031	0.023	0.1 to 1	0.1 to 1	O=C(NC(c1cccc(C(F)(F)F)c1)c1ccccn1)C1CCN(CCOc2ccccc2)CC1 (stereo not drawn) [Compound 32, 1-(2-phenoxyethyl)-N-(pyridin-2-yl(3-(trifluoromethyl)phenyl)methyl) piperidine-4-carboxamide]	> 30	10 to 30	91	98	61	46	74	37	–
3.3 (≈ 1.48 µg/mL)	0.021	0.02	0.046	0.1 to 1	0.1 to 1	O=C(NC(c1ccccc1)c1ccc(Cl)cc1)C1CCN(CCOc2ccccc2)CC1 (stereo not drawn) [Compound 39]	> 30	> 30	100	86	49	55	93	65	–
< 0.1	0.007	0.006	0.014	1 to 10	0.1 to 1	O=C(NC(c1ccc(Cl)cc1)c1cccc(F)c1)C1CCN(CCOc2ccccc2)CC1 (stereo not drawn) [Compound 41]	> 30	> 30	100	96	45	78	100	64	–

Compound	solubility (Solubility in PBS; aqueous buffer) [µM]	fraction unbound (plasma protein [3])	fraction unbound (plasma protein [4])	fraction unbound (plasma protein [5])	IC50 (human D2R/β-arrestin [8]) [µM]	IC50 (human D2R/β-arrestin [9]) [µM]	EC50 (human D2R/β-arrestin [1]) [µM]	EC50 (human D2R/β-arrestin [2]) [µM]	Plasma Stability: % remaining after 5 hours (Plasma stability, human) [%]	Plasma Stability: % remaining after 5 hours (Plasma stability, rat) [%]	Microsomal Stability: % remaining after 60 minutes [6] [%]	Microsomal Stability: % remaining after 60 minutes [7] [%]	Plasma Stability: % remaining after 5 hours (Plasma stability, mouse) [%]	Microsomal Stability: % remaining after 60 minutes [10] [%]	also measured
O=C(NC(c1ccc(Cl)cc1)c1ccccn1)C1CCN(CCn2ccc(=O)cc2)CC1 (stereo not drawn) [Compound 11]	> 500	0.485	0.391	0.211	> 30	10 to 30	> 30	> 30	98.2	100	95	100	89.5	100	Ki (D2): 10 to 30 µM
O=C(NC(c1ccc(Cl)cc1)c1ccccn1)C1CCN(CCOc2ccc3cccnc3c2)CC1 (stereo not drawn) [Compound 16]	14 (≈ 7.01 µg/mL)	0.01	0.023	0.021	> 30	> 30	1 to 10	< 0.1	98	97	34	75	94	45	Ki (D2): 10 to 30 µM
O=C(NC(c1cccc(F)c1)c1ccccn1)C1CCN(CCOc2ccccc2)CC1 (stereo not drawn) [Compound 26]	460 (≈ 199 µg/mL)	0.062	0.057	0.046	1 to 10	0.1 to 1	> 30	> 30	100	99	84	96	92	66	–
O=C(NC(c1ccccc1)c1ccc(F)cc1)C1CCN(CCOc2ccccc2)CC1 (stereo not drawn) [Compound 45]	6.5 (≈ 2.81 µg/mL)	0.017	0.015	0.012	< 0.1	< 0.1	> 30	> 30	95	85	56	59	91	62	–
